Assay results taken from paper PMC8206213, “An L-2-hydroxyglutarate biosensor based on specific transcriptional regulator LhgR” (Nature Communications, 2021).
Where “and” joins values, the source holds several entries; their conditions need not be identical. Identical values can stand only once.

Columns and labels:
[1] = system: LHGFR0N7C expressed in HEK293FT cells; experiment: Specificity of LHGFR0N7C expressed in permeabilized HEK293FT cells, 1 mM compounds; format: cell-based, human (HEK293FT cells); details: Supplementary Fig. 17d; Control about 1
Experimental: To characterize the sensitivity and specificity of LHGFR expressed in HEK293FT cells, cells were trypsinized 48 h following transfection and suspended in 1× Hank’s balanced salt solution supplemented with 20 mM HEPES. […] Digitonin at a concentration of 10 μM was used to induce cell permeabilization and deplete intracellular L-2-HG for in vivo response curves construction. Then, the fluorescence intensities were determined by a SpectraMax i3 fluorescence plate reader (Molecular Devices, USA) with excitation at 430 nm and emission at 485 nm (mTFP) and 528 nm (Venus). Basal L-2-HG concentration in HEK293FT cells under physiological conditions was determined by substituting the emission ratios of non-permeabilized HEK293FT cells into the calibrated in vivo response curves.

[2] = system: LHGFR0N7C; experiment: Specificity of purified LHGFR0N7C, emission ratio with 240 μM compounds; format: binding, Pseudomonas putida W619; details: 240 μM compound
Experimental: (§1) Purified L-2-HG biosensors and different compounds were diluted by 50 mM Tris-HCl buffer (pH 7.4), mixed together in a black 96-well plate at a volume ratio of 3:1, and the fluorescence intensities were measured using an EnSight microplate reader (PerkinElmer, USA) with excitation at 430 nm, emission at 485 nm (mTFP) and 528 nm (Venus). […] The [L-2-HG], Kd, and p refer to the L-2-HG concentration, apparent dissociation constant, and Hill slope, respectively. Emission spectra were recorded at 430 nm excitation, in steps of 2 nm. Excitation spectra were recorded using emission at 550 nm, excitation from 380 to 535 nm in steps of 2 nm.

[3] = system: LHGFR0N7C; experiment: Influence of other compounds on the response of purified LHGFR0N7C to L-2-HG; format: binding, Pseudomonas putida W619; details: Suppl. Fig. 9b; L-2-HG alone or with the compound; three replicates
Experimental: as §1

[4] = system: LhgO; experiment: Enzymatic assay of LhgO in crude extracts of P. putida KT2440 derivatives grown on different carbon sources (induction of lhgO under LhgR control); format: cell-based, Pseudomonas putida; details: for Induction of lhgO expression / effector molecule of LhgR: gene segment F2-lhgR-F1-lhgO in P. putida KT2440 derivatives
Experimental: The cells were harvested at mid-log phase, washed twice and resuspended in phosphate-buffered saline (PBS), then lysed by sonication on ice after the addition of 1 mM phenylmethylsulfonyl fluoride (PMSF). […] Protein concentrations of the supernatants were determined using the Bradford protein assay kit (Sangon, China). […] The 800 μL reaction solution contained 0.1 mM […], 0.05 mM DCPIP, 0.2 mM phenazine methosulfate (PMS) in PBS and 40 μL crude extracts.

[5] = crude extract of DcsiRDlhgO-pME6032 grown in MSM with the compound as sole carbon source

SMILES | Normalized emission ratio [1] | Emission ratio [2] | Emission ratio [3] | LhgO activity [4, 5] | Induction of lhgO expression / effector molecule of LhgR [4] | Induction of emission ratio changes [2] | LhgO activity ([4]; crude extract of DcsiRDcsiDDlhgO-pME6032-F2-lhgR-F1-lhgO grown with the compound as sole carbon source) | LhgO activity ([4]; crude extract of DcsiRDlhgO-pME6032-F2-lhgR-F1-lhgO grown with the compound as sole carbon source) | LhgO activity ([4]; crude extract of DcsiRDlhgO-pME6032-F2-lhgR-F1-lhgO grown with the compound as sole carbon source, listed as glutarate)
O=C(O)CC[C@@H](O)C(=O)O [D-2-HG] | 1.116 and 1.067 and 1.082 | 1.984 and 1.994 and 1.98 | 2.616 and 2.6121 and 2.633 | 7.06E-04 and 6.93E-04 and 7.09E-04 | neither D-2-HG nor glutarate can serve as the effector molecule of LhgR | – | – | – | –
O=C(O)CCCC(=O)O [Glutarate, glutarate] | 0.9993 and 0.9933 and 0.9442 | 1.71 (2×) and 1.717 | 2.576 and 2.574 and 2.627 | 7.09E-04 and 9.66E-04 and 0.00113 | neither D-2-HG nor glutarate can serve as the effector molecule of LhgR | None | no activity of LhgO was detected | 0.02427 and 0.01721 and 0.01877 | activity of LhgO was also detected
